# Measurements reported in US10259774B1, “Antimicrobials for preservation of home and personal care products” (GALAXY SURFACTANTS LTD., priority 2018, dated 2019).
# Columns and labels:
# [1] = comparison surfactants, conditions not given; cited from earlier work
# [2] = system: Escherichia coli ATCC 8739, Pseudomonas aeruginosa ATCC 15442, Staphylococcus aureus ATCC 6538, Propionibacterium acnes MTCC 1951, Candida albicans ATCC 10231 …; experiment: Preservative challenge test according to PCPC protocol; assay type: cell-based, bacteria, yeast and mold
# Text: The preservative efficacy of the compounds of Formula I has been tested in surfactant formulations typically containing anionic surfactant with pH ranging for 4 to 8.0. The personal care and home care formulations (body wash, shampoo, skin-cream and dish wash) are preserved with 1.0 to 2.0% of compounds of Formula I. The details of formulations are given in Examples 4, 5, 6, 7, 8, 9, and 10. The above formulations pass the challenge test performed according to PCPC protocol using Escherichia coli ATCC 8739, Pseudomonas aeruginosa ATCC 15442 (Gram −ve bacteria), Staphylococcus aureus ATCC 6538, Propionibacterium acnes MTCC 1951, (Gram +ve) Candida albicans ATCC 10231, Malassezia furfur MTCC 1374 (yeast) and Aspergillus niger ATCC 16404 (mold) The formulations pass the challenge test criteria for both bacteria and fungi.
# The above formulations (Example 4, 5, 6, 7, 8, 9 & 10) pass the challenge test performed according to PCPC protocol using Escherichia coli ATCC 8739, Pseudomonas aeruginosa ATCC 15442 (Gram −ve bacteria), Staphylococcus aureus ATCC 6538, Propionibacterium acnes MTCC 1951, (Gram +ve) Candida albicans ATCC 10231, Malassezia furfur MTCC 1374 (yeast) and Aspergillus niger ATCC 16404 (mold).
compound,measurement,setting,value
"CCCCCCCCCCCC[N+](CCC(=O)OC)(CCC(=O)OC)Cc1ccccc1.[Cl-] [N-Lauryl, N,N-Dimethyldipropionate Benzyl Ammonium Chloride]",MIC (%),S aureus,0.5%
same,MIC (%),E coli,0.3%
same,MIC (%),Pseudomonas sp,0.5%
same,MIC (%),P acne,0.4%
same,MIC (%),C. albicans,0.4%
same,MIC (%),M furfur,0.5%
same,MIC (%),Aspergillus niger,0.2%
CCCCCCCCCCCCOS(=O)(=O)[O-].[Na+] [sodium lauryl sulphate],CMC,[1],8.0 mmol/L
"N-Alkyl, N,N-dimethyl, N-benzyl ammonium chloride [Benzalkonium chloride]",challenge test,"[2]; 10% SLES preserved with 1% of the substance, PCPC protocol",failed to pass
same,antimicrobial activity in the presence of anionic surfactant,[2]; used at 10000 ppm,does not exhibit any antimicrobial activity
cocoamidopropyl betaine,CMC,[1],0.05 mmol/L
